Test results as given in ChEMBL document CHEMBL4725255, “Broad assessment of bioactivity of a collection of spiroindane pyrrolidines through "cell painting"” (Bioorg Med Chem, 2020).
Activity calls are given as the source filed them. The rule behind the calls is not given here.

System: U2OS
Test: Cytotoxicity against human U-2 OS cells assessed as change in cell morphology incubated for 24 hrs at […] measured after various levels of staining by micro XL microscopic-imaging analysis
Assay type: functional, cell-based

Structure (SMILES)	Activity
N#C[C@@H]1C[C@H]2[C@H]3[C@@H]1C=C[C@]32C1=NCCC1	Active
N#CC1Cc2ccccc2C12CCCN2 (stereo in doubt; 14)	inactive
COCCOC(=O)N1CCCC12CCc1ccc(C#CCO)cc12 (stereo not given)	Active
N#CC1Cc2ccccc2C12CCCN2 (stereo in doubt; 1)	Active
COc1ccc(-c2ccc3c(c2)C2(CCCN2)C(C#N)C3)cc1 (stereo not given)	inactive
